# Measured values as given in patent US20120064528A1, “METHODS AND REAGENTS FOR QUANTIFYING NUCLEIC ACID FRAGMENTATION AND APOPTOSIS (QLM-PCR, CELL NUMBER QPCR AND APOQPCR)” (THE MACFARLANE BURNET INSTITUTE FOR MEDICAL RESEARCH AND …, priority 2010, published 2012).
# “Also recorded” adds a separate entry of the source.
# What was measured:
# Jurkat cells [1] = assay: Genomic DNA fragmentation by agarose gel electrophoresis and trace intensity; format: cell-based, human; conditions: 5 hours
# Procedure: Jurkat cells were grown to log phase in RF-10 tissue culture medium, pelleted and resuspended to 10^6 cells/ ml in new RF-10 at 37° C., and incubated at 37° C. with or without staurosporine (at 4 or 8 μM) for 5 and 6 hours. At the end-points, genomic DNA was purified using Qiagen DNA mini-prep columns following the manufacturer's recommendations, including RNase treatment and stored at −80° C. These columns quantitatively purify nucleic acid in the target size range of 200 by to 50 kbp. Nucleic acid for each end-point was compared by agarose gel electrophoresis. The generation of 100% apoptotic nucleic acid was defined as the complete absence of any typically high molecular weight genomic nucleic acid and complete conversion of this length of nucleic acid into apoptotic fragments, as determined by trace intensity using a GelDoc Imager (BioRad). […] The same experiment from cell culture to nucleic acid purification was repeated to test reproducibility. Nucleic acid from both experiments was electrophoresed together and trace intensities compared (FIG. 2C).
# Jurkat cells [2] = assay: Apoptosis measured by TUNEL with flow cytometry; format: cell-based, human
# Procedure: To verify the definition of 100% apoptotic DNA, apoptosis was measured by TUNEL with flow cytometry from fractions of the same cultured cells used for genomic nucleic acid purification (above). At each time point and each staurosporine concentration, cells (6 ml) were collected, washed twice with PBS and resuspended in PBS to 2×10^7 cells/ml for duplicate 100 μl cells per micro-well. TUNEL procedure for cell suspensions followed the In Situ Cell Death Detection Kit, Flourescein (Roche, Mannheim, Germany) with the following modifications: after pelleting cells in wells, supernatant was aspirated and cells gently resuspended in 100 μl/well of fixation/permeabilisation solution (Cytofix/Cytoperm kit, BD Biosciences/Pharmingen, CA, USA). After incubation for 20 minutes at 4° C., cells were washed at this and subsequent wash stages 2 times at room temperature with perm/wash buffer (Cytofix/Cytoperm kit). After final washes, cells were resuspended in 250 μl/well 1% paraformaldehyde in PBS, stored at 4° C. in the dark for up to 12 hours and analyzed by flow cytometry at excitation 488 nm, detection 530 nm using a BD FACScan (BD Biosciences). At each measurement at least 10,000 events were sorted. Mean TUNEL positivity for cells incubated for 5 hours without staurosporine was 3%, while positivity for cells incubated for 5 hours with 8 μM staurosporine was 98.5% (FIG. 3).
smiles,measurement,setting,value
CN[C@@H]1C[C@H]2O[C@@](C)([C@@H]1OC)n1c3ccccc3c3c4c(c5c6ccccc6n2c5c31)C(=O)NC4 [staurosporine],"unfragmented high molecular weight genomic nucleic acid remaining, by trace quantification","Jurkat cells [1]; 4 μM staurosporine, 37° C.",1.8%
same,DNA fragmentation as determined by trace analysis,"Jurkat cells [1]; 8 μM staurosporine, 37° C. (optimal conditions)",all DNA was fragmented; also recorded: unfragmented nucleic acid was not detected
same,Mean TUNEL positivity,"Jurkat cells [2]; 8 μM staurosporine, 5 hours",98.5%
same,apoptotic cells by TUNEL with flow cytometry (FACS),Jurkat cells [2]; optimal test conditions,99%
